Data reported in patent US11306125B2, “PCSK9 antagonists bicyclo-compounds” (Merck Sharp & Dohme Corp., priority 2018, dated 2022).
Starred links: 1 amine or outer side, 2 acyl side, 3 side chain; linkers in the order of their positions; H or OH if unused. Positions of bridges follow the written chain, without caps; N, C: chain ends. Non-standard residues stand in square brackets, D forms with d. Residues, ends and D or L forms follow the SMILES beside them. *: point of attachment. X2 = CC1(C)C(/C=C/C=C/C=C2\N(CCCS(=O)(=O)O)c3ccc(S(=O)(=O)O)cc3C2(C)CCCCCC(=O)*)=[N+](CCCS(=O)(=O)[O-])c2ccc(S(=O)(=O)O)cc21; Phe(3-CH2NH2) = O=C([C@H](Cc1cccc(CN[*:3])c1)N[*:1])[*:2]; Me3N+(CH2)2O(CH2)2O(CH2)2CO = C[N+](C)(C)CCOCCOCCC(=O)*; Trp(5-F) = N[C@@H](Cc1c[nH]c2ccc(F)cc12)C(=O)O; X1 = O=C(CCC(=O)[*:1])NCc1ccc(CCN[*:2])cc1; mXylylene = c1cc(C[*:1])cc(C[*:2])c1; AEF = NCCOc1ccc(C[C@H](N)C(=O)O)cc1; Glutaryl = O=C(CCCC(=O)[*:2])[*:1]; NMeE = CN[C@@H](CCC(=O)O)C(=O)O; αMeP = C[C@@]1(C(=O)O)CCCN1; dDap = NC[C@@H](N)C(=O)O; Dap = NC[C@H](N)C(=O)O; Boc = CC(C)(C)OC(=O)*; Mpa = O=C(O)CCS; tBu = CC(C)(C)*

Key:
Type in all cases: binding
PCSK9 [1] = target: T1, PCSK9 (Homo sapiens, UniProt Q8NBP7); assay: PCSK9 Alexa FRET Standard TR-FRET assay
T1 construct: purchased
Procedure: A solution containing 1 nM biotinylated PCSK9+2.5 nM Lance Streptavidin Europium (Strep-Eu) is made in 50 mM HEPES pH 7.4, 0.15 M NaCl, 5 mM CaCl2, 0.01% BSA, and 0.01% Surfactant P20. […] An Echo is used to transfer 0.750 ul of compound to an assay plate followed by the addition of 15 ul of PCSK9+Stept-Eu and 15 ul of AF peptide. […] The reaction is incubated at room temperature for at least two hours prior to fluorescence measurements using an Envision Multilabel Reader. IC50 values are determined by fitting data to a sigmoidal dose-response curve using nonlinear regression. Ki is then calculated from the Ic50 and the KD of AF cyclic peptide. Counts (B-counts) of the europium-labeled PCSK9 are followed to observe if compounds are adversely PCSK9. A fall off of the B-counts is likely indicates a false positive of inhibition. Data from this procedure is reported as “A=‘numerical value’ (nanomolar)”

PCSK9 [2] = target: T1, PCSK9; assay: PCSK9 Alexa FRET Plus TR-FRET assay
Procedure: A solution containing 1 nM biotinylated PCSK9+2.5 nM Lance Streptavidin Europium (Strep-Eu) is made in 50 mM HEPES pH 7.4, 0.15 M NaCl, 5 mM CaCl2, 0.01% BSA, and 0.01% Surfactant P20. A separate solution containing 1920 nM of the AlexaFluor tagged cyclic peptide is made in the same buffer system. An Echo is used to transfer 0.075 ul of compound plus 0.675 ul of DMSO to each well of an assay plate followed by the addition of 15 ul of PCSK9+Stept-Eu and 15 ul of AF peptide. The final assay volume is 30.750 ul containing 0.5 nM PCSK9, 1.25 nM Strep-Eu, and 960 nM AF cyclic peptide. The reaction is incubated at room temperature for at least two hours prior to fluorescence measurements using an Envision Multilabel Reader. IC50 values are determined by fitting data to a sigmoidal dose-response curve using nonlinear regression. Ki is then calculated from the IC50 and the KD of AF cyclic peptide. Counts (B-counts) of the europium-labeled PCSK9 are followed to observe if compounds are adversely affecting PCSK9. A fall off of the B-counts is likely indicates a false positive of inhibition. Data from this procedure is reported as “P=‘numerical value’ (nanomolar)”

PCSK9 [3] = target: T1, PCSK9; assay: KD of the AlexaFluor647 tagged cyclic peptide probes for PCSK9; settings: AF tagged cyclic peptide probe, interaction with PCSK9
[4] = displacement of AlexaFluor647 tagged cyclic peptide Reagent A (20 nM) from biotinylated PCSK9 (0.5 nM), read-out: A (standard TR Fret), Ki calculated from the IC50 and the KD of AF cyclic peptide
[5] = displacement of AlexaFluor647 tagged cyclic peptide Reagent B (960 nM) from biotinylated PCSK9 (0.5 nM), read-out: Plus / P (Alexa Fret plus standard TR Fret), Ki calculated from the IC50 and the KD of AF cyclic peptide

T1 sequence (Q8NBP7 153-692): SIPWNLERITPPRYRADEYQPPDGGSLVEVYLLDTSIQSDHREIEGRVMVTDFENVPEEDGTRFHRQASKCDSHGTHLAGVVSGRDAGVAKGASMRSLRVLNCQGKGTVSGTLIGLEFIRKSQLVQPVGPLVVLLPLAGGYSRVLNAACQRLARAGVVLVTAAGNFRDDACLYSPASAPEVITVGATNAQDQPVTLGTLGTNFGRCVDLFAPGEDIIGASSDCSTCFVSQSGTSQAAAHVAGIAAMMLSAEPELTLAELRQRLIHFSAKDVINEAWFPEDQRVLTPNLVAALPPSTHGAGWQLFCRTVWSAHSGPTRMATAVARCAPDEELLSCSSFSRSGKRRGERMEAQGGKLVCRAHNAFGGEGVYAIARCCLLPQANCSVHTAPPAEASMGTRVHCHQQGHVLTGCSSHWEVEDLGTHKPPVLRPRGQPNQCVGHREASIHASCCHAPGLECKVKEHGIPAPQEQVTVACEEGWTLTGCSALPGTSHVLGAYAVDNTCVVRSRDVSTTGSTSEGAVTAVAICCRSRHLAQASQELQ

Row | Structure (SMILES) | Ki (PCSK9 [1]; [4]) [nM] | Ki (PCSK9 [2]) [nM] | Ki (PCSK9 [1]) [nM] | other results
1 | COc1ccc(C[C@@H]2NC(=O)[C@H]([C@@H](C)O)NC(=O)[C@@H]3CCC(=O)NCc4cccc(c4)C[C@H](NC(=O)[C@@H](C)NC(=O)[C@H](CNC(=O)CCOCCOCC[N+](C)(C)C)NC(=O)CCC(=O)NCc4ccc(cc4)CCNC(=O)[C@]4(C)CCCN4C2=O)C(=O)N[C@@H](Cc2c[nH]c4ccc(F)cc24)C(=O)N3C)cc1 [Ex-C03] ([Dap](Me3N+(CH2)2O(CH2)2O(CH2)2CO)[dA][Phe(3-CH2NH2)][Trp(5-F)][NMeE]TY(Me)[αMeP]; lactam 3-5; linker N-C via X1) | 18.4 |  |  | 
2 | COc1ccc(C[C@@H]2NC(=O)[C@H]([C@H](C)O)NC(=O)[C@@H]3[C@@H]4CCN3C(=O)[C@H](Cc3c[nH]c5ccc(F)cc35)NC(=O)[C@H](Cc3cccc(c3)Cn3cc(nn3)CO4)NC(=O)[C@@H](C)NC(=O)[C@H](CNC(=O)CCOCCOCC[N+](C)(C)C)NC(=O)CCC(=O)NCc3ccc(cc3)C[C@@H](C(N)=O)NC(=O)[C@]3(C)CCCN3C2=O)cc1 [Ex-OT-05] |  | 0.19 | < 1.26 | 
3 | COc1ccc(C[C@@H]2NC(=O)[C@H]([C@@H](C)OC(C)(C)C)NC(=O)[C@@H]3CCC(=O)NCc4cccc(c4)C[C@H](NC(=O)[C@@H](CNC(=O)OC(C)(C)C)NC(=O)[C@H](C)NC(=O)CCC(=O)NCc4ccc(cc4)CCNC(=O)[C@]4(C)CCCN4C2=O)C(=O)N[C@@H](Cc2c[nH]c4ccc(F)cc24)C(=O)N3C)cc1 [Ex-C05] (A[dDap](Boc)[Phe(3-CH2NH2)][Trp(5-F)][NMeE]T(tBu)Y(Me)[αMeP]; lactam 3-5; linker N-C via X1) | < 1.26 |  |  | Ki (PCSK9 [2]; [5]): 4.37 nM
4 | COc1ccc(C[C@@H]2NC(=O)[C@H]([C@@H](C)O)NC(=O)[C@@H]3[C@@H]4CCN3C(=O)[C@H](Cc3c[nH]c5ccc(F)cc35)NC(=O)[C@H](Cc3cccc(c3)CNC(=O)CO4)NC(=O)[C@@H](C)NC(=O)[C@H](CN)NC(=O)CCC(=O)NCc3ccc(cc3)CCNC(=O)[C@]3(C)CCCN3C2=O)cc1 [Ex-B01] |  | 1.24 | 2.04 | 
5 | COc1ccc(C[C@@H]2NC(=O)[C@H]([C@@H](C)O)NC(=O)[C@@H]3CCC(=O)NCc4cccc(c4)C[C@H](NC(=O)[C@@H](C)NC(=O)[C@H](C)NC(=O)[C@@H](NC(C)=O)CC(=O)NCCOc4ccc(cc4)C[C@@H](C(N)=O)NC(=O)[C@]4(C)CCCN4C2=O)C(=O)N[C@@H](Cc2c[nH]c4ccc(F)cc24)C(=O)N3C)cc1 [Ex-C01] (Ac-DA[dA][Phe(3-CH2NH2)][Trp(5-F)][NMeE]TY(Me)[αMeP][AEF]-NH2; lactam 1-10, 4-6) | 27.8 |  |  | 
6 | COc1ccc(C[C@@H]2NC(=O)[C@H]([C@@H](C)O)NC(=O)[C@@H]3CCC(=O)NCc4cccc(c4)C[C@H](NC(=O)[C@@H](CN)NC(=O)[C@H](C)NC(=O)CCC(=O)NCc4ccc(cc4)CCNC(=O)[C@]4(C)CCCN4C2=O)C(=O)N[C@@H](Cc2c[nH]c4ccc(F)cc24)C(=O)N3C)cc1 [Ex-C06] (A[dDap][Phe(3-CH2NH2)][Trp(5-F)][NMeE]TY(Me)[αMeP]; lactam 3-5; linker N-C via X1) | 15.9 |  |  | 
7 | COc1ccc(C[C@@H]2NC(=O)[C@H]([C@@H](C)O)NC(=O)[C@@H]3[C@@H]4CCN3C(=O)[C@H](Cc3c[nH]c5ccc(F)cc35)NC(=O)[C@H](Cc3cccc(c3)CNC(=O)CO4)NC(=O)[C@@H](C)NC(=O)[C@H](CNC(=O)CCOCCOCC[N+](C)(C)C)NC(=O)CCC(=O)NCc3ccc(cc3)CCNC(=O)[C@]3(C)CCCN3C2=O)cc1 [Ex-B02] |  | 2.19 | 4.02 | 
8 | CC1(C)C(/C=C/C=C/C=C2\N(CCCS(=O)(=O)O)c3ccc(S(=O)(=O)O)cc3C2(C)CCCCCC(=O)NCCCC[C@@H]2NC(=O)CCSCc3cccc(c3)CSC[C@@H](C(N)=O)NC(=O)[C@]3(C)CCCN3C(=O)[C@H](Cc3ccc(O)cc3)NC(=O)[C@H](Cc3c[nH]cn3)NC(=O)[C@H](CC(=O)O)NC(=O)[C@H](Cc3c[nH]c4ccc(F)cc34)NC(=O)[C@H](Cc3c[nH]c4ccc(F)cc34)NC(=O)CNC2=O)=[N+](CCCS(=O)(=O)[O-])c2ccc(S(=O)(=O)O)cc21 (stereo partly shown) [Reagent A] ([Mpa]K(X2)G[Trp(5-F)][Trp(5-F)]DHY[αMeP]C-NH2; linker 1-10 via mXylylene) |  |  |  | Kd (PCSK9 [3]): 83 nM
9 | COc1ccc(C[C@@H]2NC(=O)[C@H]([C@@H](C)O)NC(=O)[C@@H]3[C@@H]4CCN3C(=O)[C@H](Cc3c[nH]c5ccc(F)cc35)NC(=O)[C@H](Cc3cccc(c3)Cn3cc(nn3)CO4)NC(=O)[C@@H](C)NC(=O)[C@H](CNC(=O)CCOCCOCC[N+](C)(C)C)NC(=O)CCC(=O)NCc3ccc(cc3)CCNC(=O)[C@]3(C)CCCN3C2=O)cc1 [Ex-OT-06] |  | 0.29 | < 1.26 | 
10 | COc1ccc(C[C@@H]2NC(=O)[C@H]([C@H](C)O)NC(=O)[C@@H]3[C@@H]4CCN3C(=O)[C@H](Cc3c[nH]c5ccc(F)cc35)NC(=O)[C@H](Cc3cccc(c3)Cn3cc(nn3)CO4)NC(=O)[C@@H](C)NC(=O)[C@H](C)NC(=O)[C@@H](NC(C)=O)CC(=O)NCc3ccc(cc3)C[C@@H](C(N)=O)NC(=O)[C@]3(C)CCCN3C2=O)cc1 [Ex-OT-03] | < 1.26 |  |  | Ki (PCSK9 [2]; [5]): 0.32 nM
11 | COc1ccc(C[C@@H]2NC(=O)[C@H]([C@@H](C)O)NC(=O)[C@@H]3[C@@H]4CCN3C(=O)[C@H](Cc3c[nH]c5ccc(F)cc35)NC(=O)[C@H](Cc3cccc(c3)CNC(=O)CO4)NC(=O)C(CN)NC(=O)[C@H](C)NC(=O)CCC(=O)NCc3ccc(cc3)CCNC(=O)[C@]3(C)CCCN3C2=O)cc1 (stereo partly shown) [Ex-B03] |  | 0.008 | < 1.26 | 
12 | COc1ccc(C[C@@H]2NC(=O)[C@H]([C@H](C)O)NC(=O)[C@@H]3[C@@H]4CCN3C(=O)[C@H](Cc3c[nH]c5ccc(F)cc35)NC(=O)[C@H](Cc3cccc(c3)Cn3cc(nn3)CO4)NC(=O)[C@@H](C)NC(=O)[C@H](CCCC[N+](C)(C)C)NC(=O)CCC(=O)NCc3ccc(cc3)C[C@@H](C(N)=O)NC(=O)[C@]3(C)CCCN3C2=O)cc1 [Ex-OT-04] | < 1.26 |  |  | Ki (PCSK9 [2]; [5]): 0.32 nM
13 | COc1ccc(C[C@@H]2NC(=O)[C@H]([C@@H](C)O)NC(=O)C[C@@H]3[C@@H]4CCN3C(=O)[C@H](Cc3c[nH]c5ccc(F)cc35)NC(=O)[C@H](Cc3cccc(c3)CNC(=O)CO4)NC(=O)[C@@H](CNC(=O)CCOCCOCC[N+](C)(C)C)NC(=O)[C@H](C)NC(=O)CCC(=O)NCc3ccc(cc3)CCNC(=O)[C@]3(C)CCCN3C2=O)cc1 [Ex-B04] | < 1.26 |  |  | Ki (PCSK9 [2]; [5]): 0.02 nM
14 | COc1ccc(C[C@@H]2NC(=O)[C@H]([C@@H](C)O)NC(=O)[C@@H]3CCC(=O)NCc4cccc(c4)C[C@H](NC(=O)[C@@H](CNC(=O)CCOCCOCC[N+](C)(C)C)NC(=O)[C@H](C)NC(=O)CCC(=O)NCc4ccc(cc4)CCNC(=O)[C@]4(C)CCCN4C2=O)C(=O)N[C@@H](Cc2c[nH]c4ccc(F)cc24)C(=O)N3C)cc1 [Ex-C07] (A[dDap](Me3N+(CH2)2O(CH2)2O(CH2)2CO)[Phe(3-CH2NH2)][Trp(5-F)][NMeE]TY(Me)[αMeP]; lactam 3-5; linker N-C via X1) | 7.17 |  |  | 
15 | COc1ccc(C[C@@H]2NC(=O)[C@H]([C@@H](C)O)NC(=O)[C@@H]3CCC(=O)NCc4cccc(c4)C[C@H](NC(=O)[C@@H](C)NC(=O)[C@H](CN)NC(=O)CCC(=O)NCc4ccc(cc4)CCNC(=O)[C@]4(C)CCCN4C2=O)C(=O)N[C@@H](Cc2c[nH]c4ccc(F)cc24)C(=O)N3C)cc1 [Ex-C04] ([Dap][dA][Phe(3-CH2NH2)][Trp(5-F)][NMeE]TY(Me)[αMeP]; lactam 3-5; linker N-C via X1) | 4.24 |  |  | 
16 | COc1ccc(C[C@@H]2NC(=O)[C@H]([C@@H](C)O)NC(=O)[C@@H]3CCC(=O)NCc4cccc(c4)C[C@H](NC(=O)[C@@H](C)NC(=O)CCCC(=O)NCCOc4ccc(cc4)C[C@@H](C(N)=O)NC(=O)[C@]4(C)CCCN4C2=O)C(=O)N[C@@H](Cc2c[nH]c4ccc(F)cc24)C(=O)N3C)cc1 [Ex-C02] ([dA][Phe(3-CH2NH2)][Trp(5-F)][NMeE]TY(Me)[αMeP][AEF]-NH2; lactam 2-4; linker N-8 via Glutaryl) | 151 |  |  | 
